Among the data in patent US10370425B2, “Peptide antagonists of the calcitonin CGRP family of peptide hormones and their use” (priority 2012, dated 2019) are inhibition values, retold here.

Positions of bridges follow the written chain, without caps; N, C: chain ends. Residues, ends and D or L forms follow the SMILES beside them.

The assay deals with T1, amylin receptor, AMY1, a CT (calcitonin) receptor/RAMP1 (receptor-activity modifying protein) complex (Homo sapiens, UniProt O60894+P30988).
T1 construct: host or cells: CHO-K1/AMY1/Gα15
T1 sequence (P30988 25-474): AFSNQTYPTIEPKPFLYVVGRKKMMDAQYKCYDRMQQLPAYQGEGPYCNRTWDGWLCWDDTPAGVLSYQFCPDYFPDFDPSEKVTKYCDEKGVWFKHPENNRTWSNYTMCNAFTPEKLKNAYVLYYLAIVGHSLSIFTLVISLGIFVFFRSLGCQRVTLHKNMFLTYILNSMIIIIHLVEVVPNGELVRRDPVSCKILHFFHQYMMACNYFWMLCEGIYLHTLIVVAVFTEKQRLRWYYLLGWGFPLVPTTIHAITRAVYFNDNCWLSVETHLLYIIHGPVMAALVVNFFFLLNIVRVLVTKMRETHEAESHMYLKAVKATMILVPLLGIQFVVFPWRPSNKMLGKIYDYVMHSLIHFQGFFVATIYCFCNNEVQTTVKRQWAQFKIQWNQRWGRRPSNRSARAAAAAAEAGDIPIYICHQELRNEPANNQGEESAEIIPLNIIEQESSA
T1 sequence (O60894 27-148): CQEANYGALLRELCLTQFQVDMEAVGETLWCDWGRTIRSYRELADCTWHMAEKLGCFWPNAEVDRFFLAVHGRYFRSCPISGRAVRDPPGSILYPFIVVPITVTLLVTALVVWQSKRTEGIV
The assay can be described thus: Calcium flux assay (FLIPR Calcium 4) of inhibition of α-CGRP stimulation in CHO-K1/AMY1/Gα15 cells. It is filed as cell-based. The conditions noted are these: at maximal test concentration (series starts with 1 μM); CHO-K1/AMY1/Gα15 cells stimulated with 32 nM (EC80) α-CGRP; n = 2; read-out: % Inhibition @ Maximal concentration (Mean +/− SD, n = 2). As for the experimental part: Using a calcium flux assay, the dose-dependent inhibitory response of peptide antagonists of the present invention on an amylin receptor, AMY1, a CT (calcitonin) receptor/RAMP1 (receptor-activity modifying protein) complex was determined. The recombinant cell line CHO-K1/AMY1/Gα15 (GenScript, Piscataway, N.J., Catalog No. M00475) was employed in the assay. Peptide antagonist activities were tested, in duplicate, at five different concentrations, starting with 1 μM and serially diluted five-fold, in DMSO. AC187 (SEQ ID NO: 55), a known amylin receptor antagonist (available for example from Tocris Bioscience, Minneapolis, Minn., Catalog No. 3419) was used as a positive control in the assays, and human α-CGRP, a known amylin receptor agonist (SEQ ID NO:56) , (available for example from Tocris Bioscience, Minneapolis, Minn., Catalog No. 3012) was used as a positive control in the assays. The FLIPR® Calcium 4 Assay Kit (Molecular Devices, Sunnyvale, Calif.) was used.
Human α-CGRP having the amino acid sequence, NH2-[…]-NH2 (SEQ ID NO:56) and AC187 having the sequence […] (SEQ ID NO: 55) were employed as negative and positive controls, respectively. Stock solutions were further diluted in HBSS-HEPES buffer to make 5×final control solutions.
CHO-K1/AMY1/Gα15 cells were seeded in a 384-well black wall, clear bottom plate at a density of 20,000 cells/well in 20 μL of growth medium 20 hours prior to the day of the experiment and maintained at 37° C./5% CO2.
Per the assay kit protocol, dye-loading solution (at 2×final concentration) was added into the assay plate, 20 μL per well. Compound solution (at 5 ×final concentration) was added into the assay plate, 10 uL per well. The assay plate was placed into a 37° C. incubator for 1 hour, then left for 15 min at RT. The agonist plate (at 5×EC80 concentration) was placed in Source 2. The total reading time was 120 sec. The agonist was added after 20 seconds reading of the baseline and the fluorescence signal was captured for another 100 seconds (21 s to 120 s).
In screening, cells stimulated with assay buffer were chosen as the background; cells stimulated with agonist (at […] concentration) were chosen as the negative control.
Data were recorded by ScreenWorks (version 3.1) as FMD files and stored on the GenScript computer network for off-line analysis. Data acquisition and analyses was performed using ScreenWorks (version 3.1) program and exported to Excel. The average value of 20 (1 s to 20 s) seconds reading was calculated as the baseline reading and the relative fluorescent units (ΔRFU) intensity values were calculated with the maximal fluorescent units (21 s to 120 s) subtracting the average value of baseline reading.
The IC50 value of AC187 was 8 μM. The inhibitory activity of the tested peptide antagonists was normalized with the negative control (AC187) and reported as % Inhibition, calculated from the following equation: % Inhibition=(ΔRFUcompound−ΔRFUBackground)/(ΔRFUNegative control−ΔRFUBackground) * 100% Inhibition was then plotted along the Y-axis, with the test concentrations as indicated on the X-axis. The peptides were tested at indicated concentrations and stimulated with 32 nM (EC80) α-CGRP (Mean +/− SD, n=2).
Background: Calcium assays in cells follow changes in intracellular calcium, usually with a dye or a luminescent sensor.
For `CC(C)C[C@H](NC(=O)CNC(=O)[C@H](C)NC(=O)[C@H](CC(C)C)NC(=O)[C@H](CCCNC(=N)N)NC(=O)[C@H](Cc1c[nH]cn1)NC(=O)[C@@H](NC(=O)[C@@H](NC(=O)[C@@H]1CSSC[C@H](NC(=O)[C@H](C)N)C(=O)N[C@@H](CC(=O)O)C(=O)N[C@@H]([C@@H](C)O)C(=O)N[C@@H](C)C(=O)N[C@@H](C)C(=O)N1)C(C)C)[C@@H](C)O)C(=O)N[C@@H](CC(C)C)C(=O)N[C@@H](CO)C(=O)N[C@@H](CCCNC(=N)N)C(=O)N[C@@H](CO)C(=O)NCC(=O)NCC(=O)N[C@H](C(=O)N[C@H](C(=O)N[C@@H](CCCCN)C(=O)N[C@@H](CC(N)=O)C(=O)N[C@@H](CC(N)=O)C(=O)N[C@@H](Cc1ccccc1)C(=O)N[C@H](C(=O)N1CCC[C@H]1C(=O)N[C@H](C(=O)N[C@@H](CC(N)=O)C(=O)N[C@H](C(=O)NCC(=O)N[C@@H](CO)C(=O)N[C@@H](CCCCN)C(=O)N[C@@H](C)C(=O)N[C@@H](Cc1ccccc1)C(N)=O)C(C)C)[C@@H](C)O)C(C)C)C(C)C)C(C)C` [compound 15], the inhibition at 1 µM amounted to 23.3%. Turning to `CC(C)C[C@H](NC(=O)[C@H](CCCNC(=N)N)NC(=O)CNC(=O)[C@H](CC(C)C)NC(=O)[C@@H](NC(=O)[C@@H]1CSSC[C@H](N)C(=O)N[C@@H](CO)C(=O)N[C@@H](CC(N)=O)C(=O)N[C@@H]([C@@H](C)O)C(=O)N[C@@H](C)C(=O)N[C@@H](C)C(=O)N1)C(C)C)C(=O)N[C@@H](CO)C(=O)N[C@@H](CCC(N)=O)C(=O)N[C@@H](CCC(=O)O)C(=O)N[C@@H](CC(C)C)C(=O)N[C@@H](Cc1c[nH]cn1)C(=O)N[C@@H](CCCNC(=N)N)C(=O)N[C@@H](CC(C)C)C(=O)N[C@@H](CCC(N)=O)C(=O)N[C@H](C(=O)N[C@@H](Cc1ccc(O)cc1)C(=O)N1CCC[C@H]1C(=O)N[C@@H](CCCNC(=N)N)C(=O)N[C@H](C(=O)N[C@@H](CC(N)=O)C(=O)N[C@H](C(=O)NCC(=O)N[C@@H](CO)C(=O)N[C@@H](CCCCN)C(=O)N[C@@H](C)C(=O)N[C@@H](Cc1ccccc1)C(N)=O)C(C)C)[C@@H](C)O)[C@@H](C)O` [compound 8] (H-CSNTAACVLGRLSQELHRLQTYPRTNVGSKAF-NH2; disulfide 1-7 (inferred)), the inhibition at 1 µM is 95.4%. For `CC(C)C[C@H](NC(=O)[C@H](CCCNC(=N)N)NC(=O)CNC(=O)[C@H](CC(C)C)NC(=O)[C@@H](NC(=O)[C@@H]1CSSC[C@H](NC(=O)[C@H](C)N)C(=O)N[C@@H](CC(N)=O)C(=O)N[C@@H](CC(C)C)C(=O)N[C@@H](CO)C(=O)N[C@@H](C(C)C)C(=O)N1)C(C)C)C(=O)N[C@@H](CO)C(=O)N[C@@H](CCC(N)=O)C(=O)N[C@@H](CCC(=O)O)C(=O)N[C@@H](CC(C)C)C(=O)N[C@@H](Cc1c[nH]cn1)C(=O)N[C@@H](CCCNC(=N)N)C(=O)N[C@@H](CC(C)C)C(=O)N[C@@H](CCC(N)=O)C(=O)N[C@H](C(=O)N[C@@H](Cc1ccc(O)cc1)C(=O)N1CCC[C@H]1C(=O)N[C@@H](CCCNC(=N)N)C(=O)N[C@H](C(=O)N[C@@H](CC(N)=O)C(=O)N[C@H](C(=O)NCC(=O)N[C@@H](CO)C(=O)N[C@@H](CCCCN)C(=O)N[C@@H](C)C(=O)N[C@@H](Cc1ccccc1)C(N)=O)C(C)C)[C@@H](C)O)[C@@H](C)O` [compound 11] (H-ACNLSVCVLGRLSQELHRLQTYPRTNVGSKAF-NH2; disulfide 2-7 (inferred)) the value was 96.5%; for `CC(C)C[C@H](NC(=O)[C@H](CCCNC(=N)N)NC(=O)CNC(=O)[C@H](CC(C)C)NC(=O)[C@@H](NC(=O)[C@@H]1CSSC[C@H](NC(=O)[C@H](C)N)C(=O)N[C@@H](CCCNC(=N)N)C(=O)N[C@@H](Cc2ccccc2)C(=O)NCC(=O)N[C@@H](C)C(=O)N1)C(C)C)C(=O)N[C@@H](CO)C(=O)N[C@@H](CCC(N)=O)C(=O)N[C@@H](CCC(=O)O)C(=O)N[C@@H](CC(C)C)C(=O)N[C@@H](Cc1c[nH]cn1)C(=O)N[C@@H](CCCNC(=N)N)C(=O)N[C@@H](CC(C)C)C(=O)N[C@@H](CCC(N)=O)C(=O)N[C@H](C(=O)N[C@@H](Cc1ccc(O)cc1)C(=O)N1CCC[C@H]1C(=O)N[C@@H](CCCNC(=N)N)C(=O)N[C@H](C(=O)N[C@@H](CC(N)=O)C(=O)N[C@H](C(=O)NCC(=O)N[C@@H](CO)C(=O)N[C@@H](CCCCN)C(=O)N[C@@H](C)C(=O)N[C@@H](Cc1ccccc1)C(N)=O)C(C)C)[C@@H](C)O)[C@@H](C)O` [compound 6] (H-ACRFGACVLGRLSQELHRLQTYPRTNVGSKAF-NH2; disulfide 2-7 (inferred)), 93.9%. As to `CC(C)C[C@H](NC(=O)[C@H](CCCNC(=N)N)NC(=O)CNC(=O)[C@H](CC(C)C)NC(=O)[C@@H](NC(=O)[C@@H]1CSSC[C@H](NC(=O)[C@H](C)N)C(=O)N[C@@H](CC(N)=O)C(=O)N[C@@H]([C@@H](C)O)C(=O)N[C@@H](C)C(=O)N[C@@H](C)C(=O)N1)C(C)C)C(=O)N[C@@H](CO)C(=O)N[C@@H](CCC(N)=O)C(=O)N[C@@H](CCC(=O)O)C(=O)N[C@@H](CC(C)C)C(=O)N[C@@H](Cc1c[nH]cn1)C(=O)N[C@@H](CCCNC(=N)N)C(=O)N[C@@H](CC(C)C)C(=O)N[C@@H](CCC(N)=O)C(=O)N[C@H](C(=O)N[C@@H](Cc1ccc(O)cc1)C(=O)N1CCC[C@H]1C(=O)N[C@@H](CCCNC(=N)N)C(=O)N[C@H](C(=O)N[C@@H](CC(N)=O)C(=O)N[C@H](C(=O)NCC(=O)N[C@@H](CO)C(=O)N[C@@H](CCCCN)C(=O)N[C@@H](C)C(=O)N[C@@H](Cc1ccccc1)C(N)=O)C(C)C)[C@@H](C)O)[C@@H](C)O` [compound 4] (H-ACNTAACVLGRLSQELHRLQTYPRTNVGSKAF-NH2; disulfide 2-7 (inferred)), the inhibition at 1 µM was 94.6%.

For the molecule `CC(C)C[C@H](NC(=O)[C@H](CCCNC(=N)N)NC(=O)CNC(=O)[C@H](CC(C)C)NC(=O)[C@@H](NC(=O)[C@@H]1CSSC[C@H](N)C(=O)N[C@@H](CO)C(=O)N[C@@H](CC(N)=O)C(=O)N[C@@H]([C@@H](C)O)C(=O)N[C@@H](C)C(=O)N[C@@H](C(C)C)C(=O)N1)C(C)C)C(=O)N[C@@H](CO)C(=O)N[C@@H](CCC(N)=O)C(=O)N[C@@H](CCC(=O)O)C(=O)N[C@@H](CC(C)C)C(=O)N[C@@H](Cc1c[nH]cn1)C(=O)N[C@@H](CCCNC(=N)N)C(=O)N[C@@H](CC(C)C)C(=O)N[C@@H](CCC(N)=O)C(=O)N[C@H](C(=O)N[C@@H](Cc1ccc(O)cc1)C(=O)N1CCC[C@H]1C(=O)N[C@@H](CCCNC(=N)N)C(=O)N[C@H](C(=O)N[C@@H](CC(N)=O)C(=O)N[C@H](C(=O)NCC(=O)N[C@@H](CO)C(=O)N[C@@H](CCCCN)C(=O)N[C@@H](C)C(=O)N[C@@H](Cc1ccccc1)C(N)=O)C(C)C)[C@@H](C)O)[C@@H](C)O` [compound 12] (H-CSNTAVCVLGRLSQELHRLQTYPRTNVGSKAF-NH2; disulfide 1-7 (inferred)), the inhibition at 1 µM came out at 96.1%. For the molecule `CC(C)C[C@@H]1NC(=O)[C@H](C)NC(=O)[C@H]([C@@H](C)O)NC(=O)[C@H](CC(=O)O)NC(=O)[C@@H](NC(=O)[C@H](C)N)CSSC[C@@H](C(=O)N[C@H](C(=O)N[C@@H](CC(C)C)C(=O)NCC(=O)N[C@@H](CCCNC(=N)N)C(=O)N[C@@H](CC(C)C)C(=O)N[C@@H](CO)C(=O)N[C@@H](CCC(N)=O)C(=O)N[C@@H](CCC(=O)O)C(=O)N[C@@H](CC(C)C)C(=O)N[C@@H](Cc2c[nH]cn2)C(=O)N[C@@H](CCCNC(=N)N)C(=O)N[C@@H](CC(C)C)C(=O)N[C@@H](CCC(N)=O)C(=O)N[C@H](C(=O)N[C@@H](Cc2ccc(O)cc2)C(=O)N2CCC[C@H]2C(=O)N[C@@H](CCCNC(=N)N)C(=O)N[C@H](C(=O)N[C@@H](CC(N)=O)C(=O)N[C@H](C(=O)NCC(=O)N[C@@H](CO)C(=O)N[C@@H](CCCCN)C(=O)N[C@@H](C)C(=O)N[C@@H](Cc2ccccc2)C(N)=O)C(C)C)[C@@H](C)O)[C@@H](C)O)C(C)C)NC1=O` [compound 9] (H-ACDTALCVLGRLSQELHRLQTYPRTNVGSKAF-NH2; disulfide 2-7 (inferred)), the inhibition at 1 µM was determined as 95.6%.
